Measurements from PMC9990147 (Nature, 2021).

Legend:
[1] = target: T1, PCFT (proton-coupled folate transporter, SLC46A1) (Gallus gallus, UniProt F1NJ67); assay: cryo-EM structure at […] Å; type: cell-based
T1 sequence (F1NJ67 1-473): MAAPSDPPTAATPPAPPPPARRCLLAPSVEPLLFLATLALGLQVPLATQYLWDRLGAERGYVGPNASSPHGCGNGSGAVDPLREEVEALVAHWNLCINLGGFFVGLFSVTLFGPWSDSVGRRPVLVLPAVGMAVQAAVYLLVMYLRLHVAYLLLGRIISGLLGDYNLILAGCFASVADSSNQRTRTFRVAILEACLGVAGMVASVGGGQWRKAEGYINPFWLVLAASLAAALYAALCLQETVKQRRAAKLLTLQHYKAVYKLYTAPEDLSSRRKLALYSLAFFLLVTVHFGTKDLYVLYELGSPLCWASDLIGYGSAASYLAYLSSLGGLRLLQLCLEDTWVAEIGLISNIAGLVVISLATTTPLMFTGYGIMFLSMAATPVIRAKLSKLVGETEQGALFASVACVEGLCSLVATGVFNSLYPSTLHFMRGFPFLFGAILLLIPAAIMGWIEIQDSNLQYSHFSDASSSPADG

[2] = target: T2, human PCFT (SLC46A1) (Homo sapiens, UniProt Q96NT5); assay: cell-based 3H-folic acid uptake at pH […] and […]
T2 sequence (Q96NT5 1-459): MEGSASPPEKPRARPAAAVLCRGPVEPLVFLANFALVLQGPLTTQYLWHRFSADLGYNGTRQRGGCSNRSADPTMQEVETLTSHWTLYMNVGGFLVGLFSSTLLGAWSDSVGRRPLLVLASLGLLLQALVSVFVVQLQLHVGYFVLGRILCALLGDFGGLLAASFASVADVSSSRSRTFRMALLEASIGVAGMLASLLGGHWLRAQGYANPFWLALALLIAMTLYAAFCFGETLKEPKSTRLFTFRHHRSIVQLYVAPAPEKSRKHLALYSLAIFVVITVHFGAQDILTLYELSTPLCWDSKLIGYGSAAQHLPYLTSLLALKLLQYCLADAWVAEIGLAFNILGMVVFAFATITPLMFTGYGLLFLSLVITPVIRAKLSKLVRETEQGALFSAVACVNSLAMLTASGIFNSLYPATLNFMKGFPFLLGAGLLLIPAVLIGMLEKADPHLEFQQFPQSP

[3] = target: T3, biotinylated chicken PCFT with C-terminal Avi-tag (Gallus gallus (UniProt E6Y8U5 sequence), biotin on the C-terminal Avi-tag); assay: BLI
T3 chain: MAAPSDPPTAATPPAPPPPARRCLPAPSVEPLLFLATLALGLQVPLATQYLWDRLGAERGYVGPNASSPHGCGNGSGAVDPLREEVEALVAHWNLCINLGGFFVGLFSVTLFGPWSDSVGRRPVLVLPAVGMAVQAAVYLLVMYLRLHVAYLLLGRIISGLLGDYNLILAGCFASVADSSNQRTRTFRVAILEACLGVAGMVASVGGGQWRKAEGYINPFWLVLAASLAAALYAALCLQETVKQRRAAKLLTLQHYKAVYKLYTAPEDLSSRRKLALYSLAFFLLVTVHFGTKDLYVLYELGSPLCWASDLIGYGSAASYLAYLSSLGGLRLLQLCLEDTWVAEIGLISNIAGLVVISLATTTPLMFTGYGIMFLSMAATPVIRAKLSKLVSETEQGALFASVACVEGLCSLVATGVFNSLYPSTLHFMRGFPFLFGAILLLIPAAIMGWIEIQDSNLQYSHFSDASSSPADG

Nc1nc2[nH]cc(CCc3ccc(C(=O)N[C@@H](CCC(=O)O)C(=O)O)cc3)c2c(=O)[nH]1 [PMX, pemetrexed]
IC50 [1]: 900 nM

Nc1nc(=O)c2nc(CNc3ccc(C(=O)N[C@@H](CCC(=O)O)C(=O)O)cc3)cnc2[nH]1 [FA, folic acid]
cell-based 3H-folic acid uptake at pH 5.5 and 7.5 [2]: The human and chicken homologues transport similar amounts of folic acid to each other and do so only at acidic pH

B1: PCFT nanobody (high-affinity inhibitory nanobody from a naive llama library) (VHH)
VHH: QVQLVESGGGLVQPGGSLRLSCAASGFTFSRYWMYWVRQAPGKGPEWLSHMNPSGSDIKYTDSVKGRFTISRDNAKNTLYLQMNSLKPDDTAVYYCVADRRALGSPEYWGQGTQVTVSS
Kd [3]: 8 nM
